Source: patent publication US8232288B2, “Substituted benzimidazoles, benzothiazoles and benzoxazoles” (Gruenenthal GmbH, priority 2009, dated 2012)

Experiments:
[1] = molecular target: T1, B1R receptor of the rat (rB1R) (Rattus norvegicus, UniProt P97583); experiment: Functional investigation on the bradykinin receptor 1 (B1R), FLIPR Ca2+ assay, rB1R cells; format: cell-based
T1 construct: expressed in transfected cells; host or cells: CHO K1 cells
T1 sequence (P97583 1-337): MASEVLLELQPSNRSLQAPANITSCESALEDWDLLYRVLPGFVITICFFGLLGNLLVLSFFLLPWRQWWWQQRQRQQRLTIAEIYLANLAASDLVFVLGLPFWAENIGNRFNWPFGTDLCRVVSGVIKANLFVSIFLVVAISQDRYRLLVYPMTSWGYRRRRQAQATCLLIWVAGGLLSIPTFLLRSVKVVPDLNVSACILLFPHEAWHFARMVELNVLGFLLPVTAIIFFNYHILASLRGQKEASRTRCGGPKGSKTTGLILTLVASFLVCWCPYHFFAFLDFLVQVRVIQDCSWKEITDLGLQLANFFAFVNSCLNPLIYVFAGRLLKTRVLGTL
Summary of the method: (§1)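 Stably transfected CHO K1 cells expressing human or rat B1R were loaded with Fluo-4, and Ca2+ fluorescence was read on a FLIPR. Compound (10 μM) was added first to measure activation. After 10–20 min, agonist at EC80 was added (Lys-Des-Arg9-bradykinin for hB1R, Des-Arg9-bradykinin for rB1R) to give % inhibition. IC50 values came from concentration series.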

[2] = molecular target: T2, human B1R receptor (hB1R) (Homo sapiens, UniProt P46663); experiment: Functional investigation on the bradykinin receptor 1 (B1R), FLIPR Ca2+ assay, hB1R cells; format: cell-based
T2 construct: expressed in transfected cells; host or cells: CHO K1 cells
T2 sequence (P46663 1-353): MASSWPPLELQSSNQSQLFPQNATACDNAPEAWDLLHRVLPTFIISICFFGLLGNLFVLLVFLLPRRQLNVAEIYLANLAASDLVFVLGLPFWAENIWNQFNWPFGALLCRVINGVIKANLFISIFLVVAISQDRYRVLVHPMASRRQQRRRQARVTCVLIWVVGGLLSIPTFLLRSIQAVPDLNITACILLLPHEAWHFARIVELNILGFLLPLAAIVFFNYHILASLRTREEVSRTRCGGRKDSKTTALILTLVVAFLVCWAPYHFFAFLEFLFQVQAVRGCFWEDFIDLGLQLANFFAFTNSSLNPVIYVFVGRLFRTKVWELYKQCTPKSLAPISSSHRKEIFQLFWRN
Summary of the method: as §1

| SMILES | inhibition at 10 µM [1] [%] | inhibition at 10 µM [2] [%] |
| --- | --- | --- |
| COc1cc(C)c(S(=O)(=O)N(C)C(C)c2nc3cccc(C(=O)N4CCC5(CCN(Cc6ccccc6C#N)CC5)CC4)c3[nH]2)c(C)c1 (stereo not drawn) [I_CC-45, N-[1-[7-[9-[(2-Cyano-phenyl)-methyl]-3,9-diazaspiro[5.5]undecane-3-carbonyl]-1H-benzoimidazol-2-yl]-ethyl]-4-methoxy-N,2,6-trimethyl-benzenesulfonic acid amide] | 98 | 81 |
| COc1cc(C)c(S(=O)(=O)N(C)C(C)c2nc3cccc(C(=O)N4CCC5(CCN(C(=O)c6ccc(C(F)(F)F)cn6)CC5)CC4)c3[nH]2)c(C)c1 (stereo not drawn) [I_CC-46, 4-Methoxy-N,2,6-trimethyl-N-[1-[7-[9-[5-(trifluoromethyl)-pyridine-2-carbonyl]-3,9-diazaspiro[5.5]undecane-3-carbonyl]-1H-benzoimidazol-2-yl]-ethyl]-benzenesulfonic acid amide] | 89 | 42 |
| COc1cc(C)c(S(=O)(=O)N(C)C(C)c2nc3cccc(C(=O)N4CCC5(CCN(C(=O)c6cnccn6)CC5)CC4)c3[nH]2)c(C)c1 (stereo not drawn) [I_CC-47, 4-Methoxy-N,2,6-trimethyl-N-[1-[7-[9-(pyrazine-2-carbonyl)-3,9-diazaspiro[5.5]undecane-3-carbonyl]-1H-benzoimidazol-2-yl]-ethyl]-benzenesulfonic acid amide] | 90 | 58 |
| COc1cc(C)c(S(=O)(=O)N(C)C(C)c2nc3cccc(C(=O)N4CCC5(CCN(C(=O)c6cccnc6SC)CC5)CC4)c3[nH]2)c(C)c1 (stereo not drawn) [I_CC-48, 4-Methoxy-N,2,6-trimethyl-N-[1-[7-[9-(2-methylsulfanyl-pyridine-3-carbonyl)-3,9-diazaspiro[5.5]undecane-3-carbonyl]-1H-benzoimidazol-2-yl]-ethyl]-benzenesulfonic acid amide] | 89 | 61 |
| COc1cc(C)c(S(=O)(=O)N(C)C(C)c2nc3cccc(C(=O)N4CCC5(CCN(C(=O)c6ccc(C#N)cc6)CC5)CC4)c3[nH]2)c(C)c1 (stereo not drawn) [I_CC-49, N-[1-[7-[9-(4-Cyano-benzoyl)-3,9-diazaspiro[5.5]undecane-3-carbonyl]-1H-benzoimidazol-2-yl]-ethyl]-4-methoxy-N,2,6-trimethyl-benzenesulfonic acid amide] | 87 | 72 |
| COc1cc(C)c(S(=O)(=O)N(C)C(C)c2nc3cccc(C(=O)N4CCC5(CC4)CCN(C(=O)C4CC4)CC5)c3[nH]2)c(C)c1 (stereo not drawn) [I_CC-50, N-[1-[7-[9-(Cyclopropanecarbonyl)-3,9-diazaspiro[5.5]undecane-3-carbonyl]-1H-benzoimidazol-2-yl]-ethyl]-4-methoxy-N,2,6-trimethyl-benzenesulfonic acid amide] | 88 | 62 |
| COc1cc(C)c(S(=O)(=O)N(C)C(C)c2nc3cccc(C(=O)N4CCC5(CCN(C(=O)CC(C)(C)C)CC5)CC4)c3[nH]2)c(C)c1 (stereo not drawn) [I_CC-51, N-[1-[7-[9-(3,3-Dimethyl-butanoyl)-3,9-diazaspiro[5.5]undecane-3-carbonyl]-1H-benzoimidazol-2-yl]-ethyl]-4-methoxy-N,2,6-trimethyl-benzenesulfonic acid amide] | 88 | 78 |
| COc1cc(C)c(S(=O)(=O)N(C)C(C)c2nc3cccc(C(=O)N4CCC5(CCN(C(=O)c6ccc(F)cc6Cl)CC5)CC4)c3[nH]2)c(C)c1 (stereo not drawn) [I_CC-52, N-[1-[7-[9-(2-Chloro-4-fluoro-benzoyl)-3,9-diazaspiro[5.5]undecane-3-carbonyl]-1H-benzoimidazol-2-yl]-ethyl]-4-methoxy-N,2,6-trimethyl-benzenesulfonic acid amide] | 93 | 77 |
| COc1cc(C)c(S(=O)(=O)N(C)C(C)c2nc3cccc(C(=O)N4CCC5(CCN(C(=O)c6ccc(F)cc6F)CC5)CC4)c3[nH]2)c(C)c1 (stereo not drawn) [I_CC-53, N-[1-[7-[9-(2,4-Difluoro-benzoyl)-3,9-diazaspiro[5.5]undecane-3-carbonyl]-1H-benzoimidazol-2-yl]-ethyl]-4-methoxy-N,2,6-trimethyl-benzenesulfonic acid amide] | 88 | 85 |
| COc1cc(C)c(S(=O)(=O)N(C)C(C)c2nc3cccc(C(=O)N4CCC5(CC4)CCN(C(=O)c4cc(C(C)(C)C)nn4C)CC5)c3[nH]2)c(C)c1 (stereo not drawn) [I_CC-54, N-[1-[7-[9-(5-tert-Butyl-2-methyl-2H-pyrazole-3-carbonyl)-3,9-diazaspiro[5.5]undecane-3-carbonyl]-1H-benzoimidazol-2-yl]-ethyl]-4-methoxy-N,2,6-trimethyl-benzenesulfonic acid amide] | 92 | 63 |
| COc1cc(C)c(S(=O)(=O)N(C)C(C)c2nc3cccc(C(=O)N4CCC5(CC4)CCN(C(=O)c4cc(C)nn4C(C)(C)C)CC5)c3[nH]2)c(C)c1 (stereo not drawn) [I_CC-55, N-[1-[7-[9-(2-tert-Butyl-5-methyl-2H-pyrazole-3-carbonyl)-3,9-diazaspiro[5.5]undecane-3-carbonyl]-1H-benzoimidazol-2-yl]-ethyl]-4-methoxy-N,2,6-trimethyl-benzenesulfonic acid amide] | 89 | 71 |
| COc1cc(C)c(S(=O)(=O)N(C)C(C)c2nc3cccc(C(=O)N4CCC5(CC4)CCN(S(=O)(=O)c4ccc(Cl)s4)CC5)c3[nH]2)c(C)c1 (stereo not drawn) [I_CC-56, N-[1-[7-[9-[(5-Chloro-thiophen-2-yl)sulfonyl]-3,9-diazaspiro[5.5]undecane-3-carbonyl]-1H-benzoimidazol-2-yl]-ethyl]-4-methoxy-N,2,6-trimethyl-benzenesulfonic acid amide] | 101 | 15 |
| COc1cc(C)c(S(=O)(=O)N(C)C(C)c2nc3cccc(C(=O)N4CCC5(CC4)CCN(S(=O)(=O)c4ccc(F)cc4F)CC5)c3[nH]2)c(C)c1 (stereo not drawn) [I_CC-57, N-[1-[7-[9-[(2,4-Difluoro-phenyl)sulfonyl]-3,9-diazaspiro[5.5]undecane-3-carbonyl]-1H-benzoimidazol-2-yl]-ethyl]-4-methoxy-N,2,6-trimethyl-benzenesulfonic acid amide] | 103 | 22 |
| COc1cc(C)c(S(=O)(=O)N(C)C(C)c2nc3cccc(C(=O)N4CCC5(CC4)CCN(S(=O)(=O)c4ccc(F)c(C#N)c4)CC5)c3[nH]2)c(C)c1 (stereo not drawn) [I_CC-58, N-[1-[7-[9-[(3-Cyano-4-fluoro-phenyl)sulfonyl]-3,9-diazaspiro[5.5]undecane-3-carbonyl]-1H-benzoimidazol-2-yl]-ethyl]-4-methoxy-N,2,6-trimethyl-benzenesulfonic acid amide] | 101 | 18 |
| COc1cc(C)c(S(=O)(=O)N(C)C(C)c2nc3cccc(C(=O)N4CCC5(CC4)CCN(S(=O)(=O)c4ccccc4C#N)CC5)c3[nH]2)c(C)c1 (stereo not drawn) [I_CC-59, N-[1-[7-[9-[(2-Cyano-phenyl)sulfonyl]-3,9-diazaspiro[5.5]undecane-3-carbonyl]-1H-benzoimidazol-2-yl]-ethyl]-4-methoxy-N,2,6-trimethyl-benzenesulfonic acid amide] | 103 | 20 |
